The values below come from patent publication US11976061B2, “Preparation of benzimidazolone derivatives as novel diacylglyceride O-acyltransferase 2 inhibitors” (Merck Sharp & Dohme LLC, priority 2020, dated 2024).

Some results are limits rather than exact numbers.

One assay deals with T1, human DGAT2 (hDGAT2) (Homo sapiens, UniProt Q96PD7).
T1 construct: made in house; host or cells: Sf-9 insect cells (baculovirus), membrane fraction
T1 sequence (Q96PD7 1-388): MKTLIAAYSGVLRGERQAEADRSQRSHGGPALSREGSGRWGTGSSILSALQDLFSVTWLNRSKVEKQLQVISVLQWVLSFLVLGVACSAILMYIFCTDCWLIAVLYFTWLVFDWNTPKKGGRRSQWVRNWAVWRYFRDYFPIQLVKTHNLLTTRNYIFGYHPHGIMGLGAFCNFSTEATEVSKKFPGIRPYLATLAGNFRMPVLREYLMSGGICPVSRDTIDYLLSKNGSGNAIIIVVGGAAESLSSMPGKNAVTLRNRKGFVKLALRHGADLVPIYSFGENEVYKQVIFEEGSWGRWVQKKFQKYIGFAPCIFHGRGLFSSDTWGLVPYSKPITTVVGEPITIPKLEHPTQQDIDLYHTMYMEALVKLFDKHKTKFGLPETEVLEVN
The assay is described as follows: DGAT2 Enzymatic Activity Assay. The class given is biochemical. As to conditions: membrane prep of Sf-9 cells expressing hDGAT2; 25 μM diolein, 5 μM 13C oleoyl-CoA; 13C18-triolein by LC/MS/MS; read-out: DGAT2 IC50. In short, it runs like this:
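Membranes from Sf-9 cells expressing untagged human DGAT2 (8 ng/μL) incubated at rt in 100 mM Tris·Cl pH 7.0, 20 mM MgCl2, 5% ethanol with 25 μM diolein and 5 μM 13C oleoyl-CoA. 13C18-triolein product quantified by LC/MS/MS against 13C21-triolein internal standard; IC50 by 4-parameter fit.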
Broadly, the IC50 is the concentration that gives 50% inhibition. For `CC(n1c(=O)n(-c2cccc(OC(F)F)c2)c2ccc(C(=O)NC3(C)CCS(=O)(=O)CC3)cc21)C(C)(C)O` (single isomer, unassigned) [Example 67b, 1-(3-(difluoromethoxy)phenyl)-3-(3-hydroxy-3-methylbutan-2-yl)-N-(4-methyl-1,1-dioxidotetrahydro-2H-thiopyran-4-yl)-2-oxo-2,3-dihydro-1H-benzo[d]imidazole-5-carboxamide], the IC50 was found to be 0.211 µM.
Same read-out and setting: with `CCOc1cccc(-n2c(=O)n(C(C)C)c3cc(C(=O)N[C@@]4(C)CCS(=O)(=O)C4)cnc32)c1` [Example 97, 3-(3-ethoxyphenyl)-1-isopropyl-N-[(3S)-3-methyl-1,1-dioxo-thiolan-3-yl]-2-oxo-imidazo[4,5-b]pyridine-6-carboxamide] the figure was 0.154 µM.
The same measure, in the same setting: with `CC1(NC(=O)c2ccc3c(c2)n(CC(F)(F)F)c(=O)n3-c2cccc(OC(F)F)c2)CS(=O)(=O)C1` [Example 43, 1-(3-(Difluoromethoxy)phenyl)-N-(3-methyl-1,1-dioxidothietan-3-yl)-2-oxo-3-(2,2,2-trifluoroethyl)-2,3-dihydro-1H-benzo[d]imidazole-5-carboxamide] the figure was 0.202 µM; with `CC(n1c(=O)n(-c2cccc(OC(F)(F)C(F)F)c2)c2ccc(C(=O)NC3(C)CCS(=O)(=O)CC3)cc21)C(C)(C)O` (single isomer, unassigned) [Example 77a, 3-(3-hydroxy-3-methylbutan-2-yl)-N-(4-methyl-1,1-dioxidotetrahydro-2H-thiopyran-4-yl)-2-oxo-1-(3-(1,1,2,2-tetrafluoroethoxy)phenyl)-2,3-dihydro-1H-benzo[d]imidazole-5-carboxamide], 0.0056 µM.
On the same count and under the same terms, with `CC(C)n1c(=O)n(-c2cccc(OC(F)(F)C(F)F)c2)c2ncc(C(=O)N[C@@]3(C)CCS(=O)(=O)C3)cc21` [Example 94, 1-isopropyl-N-[(3S)-3-methyl-1,1-dioxo-thiolan-3-yl]-2-oxo-3-[3-(1,1,2,2-tetrafluoroethoxy)phenyl]imidazo[4,5-b]pyridine-6-carboxamide] the figure was 0.108 µM.
As for `CC(n1c(=O)n(-c2cc(OC(F)F)ccc2F)c2ccc(C(=O)NC3(C)CCS(=O)(=O)CC3)cc21)C(C)(C)O` (single isomer, unassigned) [Example 66b, 1-(5-(difluoromethoxy)-2-fluorophenyl)-3-(3-hydroxy-3-methylbutan-2-yl)-N-(4-methyl-1,1-dioxidotetrahydro-2H-thiopyran-4-yl)-2-oxo-2,3-dihydro-1H-benzo[d]imidazole-5-carboxamide], the concentration for half-maximal inhibition (IC50) is 0.0169 µM.
On the same count and under the same terms, as for `CC(C)n1c(=O)n(-c2cccc(OC(F)F)c2)c2c(F)cc(C(=O)N[C@]3(C)CCS(=O)(=O)C3)cc21` [Example 110, 1-[3-(difluoromethoxy)phenyl]-7-fluoro-3-isopropyl-N-[(3R)-3-methyl-1,1-dioxo-thiolan-3-yl]-2-oxo-benzimidazole-5-carboxamide], the figure is 0.007 µM; as for `CC(C)n1c(=O)n(-c2cc(OC(F)(F)C(F)F)ccn2)c2ccc(C(=O)NC3(C)CCS(=O)(=O)CC3)cc21` [Example 120, 3-isopropyl-N-(4-methyl-1,1-dioxidotetrahydro-2H-thiopyran-4-yl)-2-oxo-1-(4-(1,1,2,2-tetrafluoroethoxy)pyridin-2-yl)-2,3-dihydro-1H-benzo[d]imidazole-5-carboxamide], 0.0032 µM.
With `CC(C)n1c(=O)n(-c2cccc(S(C)(=O)=O)c2)c2ccc(C(=O)NC3(C)CCS(=O)(=O)CC3)cc21` [Example 58, 3-isopropyl-N-(4-methyl-1,1-dioxidotetrahydro-2H-thiopyran-4-yl)-1-(3-(methylsulfonyl)phenyl)-2-oxo-2,3-dihydro-1H-benzo[d]imidazole-5-carboxamide], the concentration for half-maximal inhibition (IC50) is greater than 9.99 µM.
Still for that read-out and setting: with `CC(n1c(=O)n(-c2cc(OC(F)(F)F)ccc2F)c2cc(F)c(C(=O)NC3(C)CCS(=O)(=O)CC3)cc21)C(C)(C)O` (single isomer, unassigned) [Example 70a, 6-fluoro-1-(2-fluoro-5-(trifluoromethoxy)phenyl)-3-(3-hydroxy-3-methylbutan-2-yl)-N-(4-methyl-1,1-dioxidotetrahydro-2H-thiopyran-4-yl)-2-oxo-2,3-dihydro-1H-benzo[d]imidazole-5-carboxamide] the figure was 0.001 µM.
On the same count and under the same terms, with `CC1(NC(=O)c2ccc3c(c2)n(CCC(F)(F)F)c(=O)n3-c2cccc(OC(F)F)c2)CCS(=O)(=O)CC1` [Example 42, 1-(3-(Difluoromethoxy)phenyl)-N-(4-methyl-1,1-dioxidotetrahydro-2H-thiopyran-4-yl)-2-oxo-3-(3,3,3-trifluoropropyl)-2,3-dihydro-1H-benzo[d]imidazole-5-carboxamide] the figure was 0.405 µM; with `CCOc1cc(-n2c(=O)n(C(C)C)c3cc(C(=O)NC4(C(F)F)CCS(=O)(=O)CC4)c(F)cc32)c(F)cn1` [Example 117, N-(4-(difluoromethyl)-1,1-dioxidotetrahydro-2H-thiopyran-4-yl)-1-(2-ethoxy-5-fluoropyridin-4-yl)-6-fluoro-3-isopropyl-2-oxo-2,3-dihydro-1H-benzo[d]imidazole-5-carboxamide], 0.027 µM; with `CC(n1c(=O)n(-c2cc(OCC(F)F)ncc2F)c2ccc(C(=O)NC3(C)CCS(=O)(=O)CC3)cc21)C(C)(C)O` (single isomer, unassigned) [Example 72a, 1-(2-(2,2-difluoroethoxy)-5-fluoropyridin-4-yl)-3-(3-hydroxy-3-methylbutan-2-yl)-N-(4-methyl-1,1-dioxidotetrahydro-2H-thiopyran-4-yl)-2-oxo-2,3-dihydro-1H-benzo[d]imidazole-5-carboxamide], 0.0064 µM.

The assay is the same for the next values; noted with them: membrane prep of Sf-9 cells expressing hDGAT2; 25 μM diolein, 5 μM 13C oleoyl-CoA; 13C18-triolein by LC/MS/MS; read-out: Human DGAT2 IC50.
On to `CC(C)n1c(=O)n(-c2cccc(OC(F)F)c2)c2ccc(C(=O)NC3(C)CCS(=O)(=O)CC3)c(C#N)c21` [Example 129, 4-cyano-1-(3-(difluoromethoxy)phenyl)-3-isopropyl-N-(4-methyl-1,1-dioxidotetrahydro-2H-thiopyran-4-yl)-2-oxo-2,3-dihydro-1H-benzo[d]imidazole-5-carboxamide], for which the concentration for half-maximal inhibition (IC50) turned out to be 0.248 µM.
The same measure, in the same setting: as for `CC(C)n1c(=O)n(-c2cncc(OC(F)F)c2)c2ccc(C(=O)NC3(C)CS(=O)(=O)C3)cc21` [Example 83, 1-(5-(Difluoromethoxy)pyridin-3-yl)-3-isopropyl-N-(3-methyl-1,1-dioxidothietan-3-yl)-2-oxo-2,3-dihydro-1H-benzo[d]imidazole-5-carboxamide], the figure is 0.15 µM; as for `CC(C)n1c(=O)n(-c2cc(OC(F)F)ncc2F)c2ccc(C(=O)NC3(C)CS(=O)(=O)C3)cc21` [Example 20, 1-(2-(difluoromethoxy)-5-fluoropyridin-4-yl)-3-isopropyl-N-(3-methyl-1,1-dioxidothietan-3-yl)-2-oxo-2,3-dihydro-1H-benzo[d]imidazole-5-carboxamide], 0.076 µM.
Same read-out and setting: as for `CC(C)n1c(=O)n(-c2cccc(OCC(F)F)c2)c2ccc(C(=O)NC3(C)CCS(=O)(=O)CC3)cc21` [Example 11, 1-[3-(2,2-difluoroethoxy)phenyl]-3-isopropyl-N-(4-methyl-1,1-dioxo-thian-4-yl)-2-oxo-benzimidazole-5-carboxamide], the figure is 0.015 µM; as for `CC(C)n1c(=O)n(-c2cc(OC(F)F)ncc2F)c2cc(F)c(C(=O)NC3(C)CCS(=O)(=O)CC3)cc21` [Example 122, 1-(2-(difluoromethoxy)-5-fluoropyridin-4-yl)-6-fluoro-3-isopropyl-N-(4-methyl-1,1-dioxidotetrahydro-2H-thiopyran-4-yl)-2-oxo-2,3-dihydro-1H-benzo[d]imidazole-5-carboxamide], 0.056 µM.
Still for that read-out and setting: as for `CC(C)n1c(=O)n(-c2cccc(OC(F)F)c2)c2ccc(C(=O)NC3(C)CCS(=O)(=O)CC3)c(Cl)c21` [Example 128, 4-chloro-1-(3-(difluoromethoxy)phenyl)-3-isopropyl-N-(4-methyl-1,1-dioxidotetrahydro-2H-thiopyran-4-yl)-2-oxo-2,3-dihydro-1H-benzo[d]imidazole-5-carboxamide], the figure is 1.38 µM.
As to `CC(C)n1c(=O)n(-c2cccc(OC(F)F)c2)c2cc(F)c(C(=O)NC3(C)CCS(=O)(=O)CC3)cc21` [Example 112, 1-(3-(Difluoromethoxy)phenyl)-6-fluoro-3-isopropyl-N-(4-methyl-1,1-dioxidotetrahydro-2H-thiopyran-4-yl)-2-oxo-2,3-dihydro-1H-benzo[d]imidazole-5-carboxamide], the IC50 came out at 0.0738 µM.
Same read-out and setting: with `CC1(NC(=O)c2cnc3c(c2)n(-c2ccc(F)cc2)c(=O)n3-c2cccc(OC(F)F)c2)CS(=O)(=O)C1` [Example 4, 3-(3-(difluoromethoxy)phenyl)-1-(4-fluorophenyl)-N-(3-methyl-1,1-dioxidothietan-3-yl)-2-oxo-2,3-dihydro-1H-imidazo[4,5-b]pyridine-6-carboxamide] the figure was 0.0085 µM.
On the same count and under the same terms, as for `CC(C(N)=O)n1c(=O)n(-c2cccc(OC(F)F)c2)c2ccc(C(=O)NC3(C)CCS(=O)(=O)CC3)cc21` (single isomer, unassigned) [EX-85a, 3-(1-amino-1-oxopropan-2-yl)-1-(3-(difluoromethoxy)phenyl)-N-(4-methyl-1,1-dioxidotetrahydro-2H-thiopyran-4-yl)-2-oxo-2,3-dihydro-1H-benzo[d]imidazole-5-carboxamide], the figure is 0.551 µM.
